“Also recorded” adds a separate entry of the source.
Legend:
Assay type in all cases: in vivo, mice
GFAP = GFAP immunofluorescence (reactive astrocytes), mean FL intensity; details: for mean GFAP FL intensity with progression of COVID-19 infection (time post-inoculation): COVID-19 positive groups, 3, 6, 10 days
pons and medulla = assay: Cresyl violet staining, semi-qualitative morphology ranking; details: COVID-19 positive; for cresyl violet morphological rank vs (−) control: rank 1-3
[1] = tested on: myelin of the pons and medulla; assay: Black-Gold II Myelin staining, semi-qualitative myelination ranking
IBA1 = IBA1 immunofluorescence (microglia), mean FL intensity; details: for mean IBA1 FL intensity with progression of COVID-19 infection (time post-inoculation): COVID-19 positive groups, 3, 6, 10 days
[2] = COVID-19 positive, 6 days post-inoculation
[3] = COVID-19 positive, 3 days post-inoculation

| Structure (SMILES) | mean GFAP FL intensity with progression of COVID-19 infection (time post-inoculation) (GFAP) | preventative effect in COVID-19 induced neuroinflammation (GFAP and IBA1 FL intensity trends) (GFAP; respiratory centers of the brain) | cresyl violet morphological rank vs (−) control (pons and medulla; 3 days post-inoculation) | cresyl violet morphological rank vs saline treatment (pons and medulla; 6 days post-inoculation) | cresyl violet morphological rank vs (−) control (pons and medulla; 6 days post-inoculation) | cresyl violet morphological rank vs saline treatment (pons and medulla; 10 days post-inoculation) | Black-Gold II myelination ranking [1, 2] | Black-Gold II myelination ranking across time points post-inoculation ([1]; regardless of COVID-19 status) | mean IBA1 FL intensity with progression of COVID-19 infection (time post-inoculation) (IBA1) | GFAP FL intensity nonlinear fit over time, Best Fit (GFAP; COVID-19 positive groups) | cresyl violet morphological rank vs (−) control (pons and medulla; 10 days post-inoculation) | Black-Gold II myelination ranking [1, 3] | Black-Gold II myelination ranking vs (−) control ([1]; COVID-19 positive, 10 days post-inoculation) | COVID-19 related changes in myelination, overall finding ([1]; respiratory centers of the brain, listed as Memantine) | IBA1 FL intensity nonlinear fit over time, Best Fit (IBA1; COVID-19 positive groups) | FL intensity vs saline and ifenprodil treated groups (FIG. 6B) (IBA1; [3]) | mean IBA1 FL intensity, COVID-19 positive vs negative group of same treatment (IBA1; sacrificed 10 days post-virus inoculation) |
| --- | --- | --- | --- | --- | --- | --- | --- | --- | --- | --- | --- | --- | --- | --- | --- | --- | --- |
| CC(C(O)c1ccc(O)cc1)N1CCC(Cc2ccccc2)CC1 (stereo not shown) [ifenprodil] | significantly changed | did not have a preventative effect | no difference in morphological rank | increases morphological rank | increase in rankings | improve the morphological rank | increased myelination ranking | no differences; also recorded: no significant difference | significantly changed | – | – | – | – | – | – | – | – |
| CC12CC3CC(C)(C1)CC(N)(C3)C2 [memantine] | no change; also recorded: increasing time point was not associated with increasing mean GFAP FL intensity | – | – | – | significantly lower than the negative control | improve the morphological rank | decreased myelination rankings | – | increasing time point was not associated with decreasing mean IBA1 FL intensity; also recorded: no change | Horizontal Line | morphology rankings similar to the negative control groups; also recorded: no longer a difference in morphological rank | decreased myelination rankings | not significantly different | signs of demyelination | Horizonal Line | decreased expression of GFAP; also recorded: slightly lower | significantly decreased; also recorded: slightly lower |

Reference: patent US20240350432A1, “CENTRAL NERVOUS SYSTEM MODULATORS AS COVID-19 THERAPEUTICS” (priority 2023, published 2024)
